Measurements as given in patent US20250026750A1, “SULFOXIMINE-CONTAINING ATR INHIBITOR COMPOUND” (Chia Tai Tianqing Pharmaceutical Group Co., Ltd., priority 2021, published 2025).

Key:
[1] = Pharmacokinetic evaluation of compounds in mice; format: in vivo; conditions: ICR mice
Procedure: ICR mice, weighing 18-22 g, were randomized into 4 groups of 9 after 3-5 days of acclimatization, and were administered intragastrically (IG) a test compound at a dose of 10 mg/kg and intravenously (IV) a test compound at a dose of 1 mg/kg.
The test animals (ICR mice) were fasted for 12 h before the administration and given food 4 h after the administration, and they were given ad libitum access to water before, during and after the experiment.
Orbital blood samples of about 0.1 mL were collected at 15 min, 30 min, 1 h, 2 h, 3 h, 4 h, 6 h, 8 h, 10 h and 24 h after the intragastric administration. Orbital blood samples of about 0.1 mL were collected at 5 min, 10 min, 30 min, 1 h, 2 h, 4 h, 6 h, 8 h, 10 h and 24 h after the intravenous administration. The blood sample collection was performed at 3-4 time points for each mouse, 3 mice/per time point. The collected whole blood was placed in EDTA-K2-containing centrifuge tubes and stored at 4° C., and, within 1 h, was centrifuged at 4° C. at 4000 rpm for 10 min to separate plasma. All plasma samples were collected and immediately stored at −20° C. for testing. 30 μL of a plasma sample to be tested and a standard-curve sample were collected, and 300 μL of an acetonitrile solution containing an internal standard (20 ng/mL diazepam) was added and well mixed by 5 min of shaking. The mixture was centrifuged at 13,000 rpm for 10 min, and 80 µL of the supernatant was collected and diluted with 80 μL of ultrapure water. After well mixing, 2 μL of the dilution was collected for liquid chromatography-mass spectrometry analysis, and pharmacokinetic parameters were calculated.

TMD-8 cells = test: Assay for inhibitory activity on TMD-8 cell proliferation (CCK-8); format: cell-based
Procedure: TMD-8 cells in a good growth state were collected into a centrifuge tube, adjusted to a cell density of 4×10^4 cells/mL, and inoculated onto a 96-well plate (100 μL/well), and the plate was incubated overnight in a cell incubator. Compounds were added using a nanoliter pipettor such that the final concentrations of the compounds were 10,000 nM-4.57 nM (the addition was performed in duplicate). Meanwhile, a control was set. After another 72 h of incubation in the cell incubator, the assay reagent CCK-8 (manufacturer: Dojindo Laboratories; 10 μL/well) was added. After 4 h of incubation in the cell incubator, absorbance was measured at 450 nm on an Envision microplate reader. A four-parameter analysis was performed, a dose-response curve was fit, and IC50 was calculated. The results are shown in Table 2, where A represents IC50≤200 nM.

ATR kinase = ATR kinase (Homo sapiens (Human), UniProt Q13535); test: Screening for in vitro inhibitory activity against ATR kinase; format: biochemical; conditions: 10 μM ATP, 0.1 μM U Light-poly GT substrate
Sequence of ATR kinase (Q13535 whole entry): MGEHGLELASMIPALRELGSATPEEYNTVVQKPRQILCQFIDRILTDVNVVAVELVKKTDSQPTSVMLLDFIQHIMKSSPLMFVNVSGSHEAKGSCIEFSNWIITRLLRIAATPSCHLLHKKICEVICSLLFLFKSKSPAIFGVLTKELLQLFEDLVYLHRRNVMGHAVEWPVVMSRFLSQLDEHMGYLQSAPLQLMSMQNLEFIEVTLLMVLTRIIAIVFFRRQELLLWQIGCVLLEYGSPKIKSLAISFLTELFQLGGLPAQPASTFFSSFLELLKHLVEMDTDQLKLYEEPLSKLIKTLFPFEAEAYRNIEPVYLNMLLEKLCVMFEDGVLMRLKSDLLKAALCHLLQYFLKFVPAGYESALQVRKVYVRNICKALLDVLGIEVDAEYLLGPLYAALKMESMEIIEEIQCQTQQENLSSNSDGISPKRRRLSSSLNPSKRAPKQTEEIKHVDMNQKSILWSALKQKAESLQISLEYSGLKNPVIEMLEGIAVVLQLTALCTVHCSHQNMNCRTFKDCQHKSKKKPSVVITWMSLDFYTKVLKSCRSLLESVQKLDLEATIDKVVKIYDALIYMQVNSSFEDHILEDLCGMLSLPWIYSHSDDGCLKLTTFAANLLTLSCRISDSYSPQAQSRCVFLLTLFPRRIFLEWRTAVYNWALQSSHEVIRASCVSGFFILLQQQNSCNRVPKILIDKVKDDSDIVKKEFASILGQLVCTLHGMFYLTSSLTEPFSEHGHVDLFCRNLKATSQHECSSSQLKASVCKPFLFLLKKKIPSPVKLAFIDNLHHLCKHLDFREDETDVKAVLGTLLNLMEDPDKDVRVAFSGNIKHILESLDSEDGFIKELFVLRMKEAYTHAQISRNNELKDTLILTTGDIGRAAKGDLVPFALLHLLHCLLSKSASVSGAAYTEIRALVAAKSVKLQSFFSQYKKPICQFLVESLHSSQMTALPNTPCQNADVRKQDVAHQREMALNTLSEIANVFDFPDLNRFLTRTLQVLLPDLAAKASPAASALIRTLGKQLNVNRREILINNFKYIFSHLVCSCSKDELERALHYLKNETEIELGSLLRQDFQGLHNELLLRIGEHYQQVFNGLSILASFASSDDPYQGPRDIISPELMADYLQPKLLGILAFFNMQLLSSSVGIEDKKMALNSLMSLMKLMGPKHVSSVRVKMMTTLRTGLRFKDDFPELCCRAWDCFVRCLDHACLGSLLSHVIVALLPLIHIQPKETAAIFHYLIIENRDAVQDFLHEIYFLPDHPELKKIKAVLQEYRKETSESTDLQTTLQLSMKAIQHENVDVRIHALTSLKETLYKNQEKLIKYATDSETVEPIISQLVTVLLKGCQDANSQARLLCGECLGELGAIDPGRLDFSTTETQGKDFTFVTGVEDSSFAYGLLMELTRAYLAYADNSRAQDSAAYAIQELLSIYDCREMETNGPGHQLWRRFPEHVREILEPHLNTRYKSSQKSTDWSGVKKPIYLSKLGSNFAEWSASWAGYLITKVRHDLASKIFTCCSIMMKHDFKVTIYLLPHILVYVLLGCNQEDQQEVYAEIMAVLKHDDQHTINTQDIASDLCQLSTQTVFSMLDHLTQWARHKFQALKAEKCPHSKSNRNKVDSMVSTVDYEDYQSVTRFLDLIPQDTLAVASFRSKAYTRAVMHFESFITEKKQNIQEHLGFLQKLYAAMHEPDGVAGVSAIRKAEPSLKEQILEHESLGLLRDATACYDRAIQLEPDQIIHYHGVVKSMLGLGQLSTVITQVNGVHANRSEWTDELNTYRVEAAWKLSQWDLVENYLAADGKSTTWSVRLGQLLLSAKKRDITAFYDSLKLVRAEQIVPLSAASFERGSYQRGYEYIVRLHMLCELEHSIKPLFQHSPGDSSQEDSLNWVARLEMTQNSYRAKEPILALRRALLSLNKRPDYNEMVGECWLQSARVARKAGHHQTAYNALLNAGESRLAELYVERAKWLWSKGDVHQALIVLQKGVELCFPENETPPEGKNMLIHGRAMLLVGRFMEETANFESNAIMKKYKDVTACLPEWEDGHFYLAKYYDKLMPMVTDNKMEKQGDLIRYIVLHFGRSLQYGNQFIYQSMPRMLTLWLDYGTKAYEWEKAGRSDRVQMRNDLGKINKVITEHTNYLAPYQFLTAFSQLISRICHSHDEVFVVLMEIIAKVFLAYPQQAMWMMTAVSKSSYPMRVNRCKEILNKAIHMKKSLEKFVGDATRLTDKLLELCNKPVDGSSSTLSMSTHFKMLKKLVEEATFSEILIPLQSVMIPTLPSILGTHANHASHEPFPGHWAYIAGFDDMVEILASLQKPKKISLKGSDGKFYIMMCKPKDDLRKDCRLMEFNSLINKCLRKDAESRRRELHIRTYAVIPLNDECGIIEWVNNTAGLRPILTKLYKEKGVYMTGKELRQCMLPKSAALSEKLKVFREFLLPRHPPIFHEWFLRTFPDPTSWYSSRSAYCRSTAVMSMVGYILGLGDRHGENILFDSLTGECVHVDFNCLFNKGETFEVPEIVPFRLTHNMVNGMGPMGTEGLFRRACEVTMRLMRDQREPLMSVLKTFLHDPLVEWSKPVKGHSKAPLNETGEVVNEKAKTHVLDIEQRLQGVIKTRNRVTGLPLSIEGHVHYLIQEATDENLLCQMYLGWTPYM
Sequence of ATR kinase (Q8WXE1 whole entry partner): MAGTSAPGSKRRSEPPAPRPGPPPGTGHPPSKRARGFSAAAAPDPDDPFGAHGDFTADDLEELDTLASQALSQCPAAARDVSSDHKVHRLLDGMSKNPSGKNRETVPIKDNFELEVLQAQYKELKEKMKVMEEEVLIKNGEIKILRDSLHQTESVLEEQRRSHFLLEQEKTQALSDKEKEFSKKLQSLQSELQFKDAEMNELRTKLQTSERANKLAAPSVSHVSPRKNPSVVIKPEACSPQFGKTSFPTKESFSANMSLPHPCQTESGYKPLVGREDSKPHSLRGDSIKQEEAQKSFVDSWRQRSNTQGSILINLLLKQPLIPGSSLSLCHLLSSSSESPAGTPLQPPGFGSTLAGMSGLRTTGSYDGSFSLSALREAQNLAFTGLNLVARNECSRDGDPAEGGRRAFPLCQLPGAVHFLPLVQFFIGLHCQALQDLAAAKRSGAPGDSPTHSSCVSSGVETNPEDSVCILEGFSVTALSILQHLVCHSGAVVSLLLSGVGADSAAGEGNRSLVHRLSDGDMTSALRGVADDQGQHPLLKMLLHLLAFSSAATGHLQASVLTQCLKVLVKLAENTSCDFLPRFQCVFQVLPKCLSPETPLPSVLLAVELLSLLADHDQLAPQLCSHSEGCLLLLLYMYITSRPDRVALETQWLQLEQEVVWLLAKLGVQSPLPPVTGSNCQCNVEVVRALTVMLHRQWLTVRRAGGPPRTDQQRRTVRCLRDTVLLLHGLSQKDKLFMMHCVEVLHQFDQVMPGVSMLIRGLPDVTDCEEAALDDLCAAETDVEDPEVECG
Procedure: A 50 ng/μL ATR stock solution was diluted with a kinase buffer (50 mM HEPES, 10 mM MgCl2, 2 mM DTT, 1 mM EGTA, 0.01% Tween 20), and 6 μL of 1.67×, 0.0835 ng/μL working solution was added to each well (final concentration: 0.05 ng/μL). Different compounds dissolved in DMSO were added to wells using a nanoliter pipettor, such that the final concentrations of the compounds were 1000 nM-0.24 nM and the concentrations in positive wells were 100 nM-0.024 nM (4-fold gradient, 7 concentrations in total). Meanwhile, a blank control well (containing no enzyme) and a negative control well (containing enzyme, with the vehicle DMSO added) were set. After the enzyme had reacted with the compound or vehicle for 30 min, a 5×, 50 μM ATP (final concentration: 10 μM) prepared with the kinase buffer and a 5×, 0.5 μM substrate (final concentration: 0.1 μM, U Light-poly GT) were 1:1 mixed, and the mixture was added to wells at 4 μL/well. After the plate was sealed with a sealing film and the plate was incubated at room temperature for 2 h, 5 μL of 4×, 40 mM EDTA (final concentration: 10 mM) was added to each well. After 5 min of incubation at room temperature, 5 μL of a 4×, 8 nM assay reagent (final concentration: 2 nM, Ep-anti-phospho-tyrosine antibody) was added to each well. The plate was incubated at room temperature for 1 h. Plate reading was performed on a PE instrument (excitation: 320 or 340 nm; emission: 665 nm), and four-parameter fitting and IC50 calculations were performed. The results are shown in Table 1, where A represents IC50<50 nM.

[2] = In vitro liver microsomal stability; format: in vitro ADME; conditions: human liver microsomes, NADPH, 37° C.
Procedure: A 200-μL final incubation system contained 20 μL of liver microsomes (protein concentration: 5 mg/mL), 20 μL of NADPH+MgCl2, 2 μL of a substrate, and 158 μL of PBS buffer. The proportion of the organic solvent was 1%. The assay was performed in duplicate (0.2 mL each) for each species. A 180-μL mixture of substrate and enzyme was prepared in each tube. After the mixture and NADPH were pre-incubated at 37° C. for 5 min, 20 μL of NADPH+MgCl2 was added and mixed. 50-μL samples were taken at 0, 15 and 60 min, and the reactions were stopped using ice-cold acetonitrile containing an internal standard.
50-μL incubated samples were taken, and 300 μL of internal standard-containing acetonitrile was added for precipitation. After 5 min of vortexing and shaking, centrifugation (13,000 rpm, 20° C.) was performed for 10 min. 80 μL of the supernatant was added to a 96-well plate and diluted with 80 μL of ultrapure water, and 1 μL of the dilution was injected for LC-MS/MS analysis.

[3] = plasma, IG 10 mg/kg / IV 1 mg/kg study
[4] = Homo sapiens, TMD8, 72 h incubation

Human liver microsome (Residual % at 60 min) [2]	SMILES	IC50 (TMD-8 cells; [4])	further results
	Cc1cc(-n2ncc3c(N=[S@@](C)(=O)C4CC4)cc(N4CCOC[C@H]4C)nc32)[nH]n1 [Compound 19-A]		IG half-life t1/2 ([1]; intragastric 10 mg/kg): 1.16 h; Area under plasma concentration-time curve AUC0-last [1, 3]: 5403 ng·h/mL; Peak concentration Cmax [1, 3]: 2948 ng/mL; Tissue distribution Vd ([1]; IG 10 mg/kg / IV 1 mg/kg study): 4.58 L/kg; Absolute bioavailability F ([1]; IG 10 mg/kg vs IV 1 mg/kg): 88%; IC50 (TMD-8 cells; 72 h incubation): ≤ 200 nM; IC50 (ATR kinase): < 50 nM
	C[C@@H]1COCCN1c1cc(N=[S@](C)(=O)C2CCC(F)(F)CC2)c2cnn(-c3ccn[nH]3)c2n1 (single isomer, unassigned) [Compound 16-A]		IC50 (ATR kinase): < 50 nM
	C[C@@H]1COCCN1c1cc(N=S(C)(C)=O)c2c(C#CC3CC3)nn(-c3cc[nH]n3)c2n1 [Compound 26]	≤ 200 nM	
108.36%	Cc1cc(-n2ncc3c(N=S(C)(C)=O)cc(N4CCOC[C@H]4C)nc32)[nH]n1 [Compound 13]		IC50 (ATR kinase): < 50 nM
85.89%	CCS(=O)(CC)=Nc1cc(N2CCOC[C@H]2C)nc2c1cnn2-c1ccn[nH]1 [Compound 2]	≤ 200 nM	
	CC(C)Cc1nn(-c2cc[nH]n2)c2nc(N3CCOC[C@H]3C)cc(N=S(C)(C)=O)c12 [Compound 21]	≤ 200 nM	
	C[C@@H]1COCCN1c1cc(N=S(C)(C)=O)c2c(C3CC3)nn(-c3ccn[nH]3)c2n1 [Compound 22]	≤ 200 nM	
	C[C@@H]1COCCN1c1cc(N=S(C)(C)=O)c2c(CCC(F)(F)F)nn(-c3ccn[nH]3)c2n1 [Compound 24]	≤ 200 nM	
94.62%	C[C@@H]1COCCN1c1cc(N=S2(=O)CCOCC2)c2cnn(-c3ccn[nH]3)c2n1 [Compound 6]		
	C[C@@H]1COCCN1c1cc(N=S(C)(C)=O)c2c(C(C)(C)C)nn(-c3cc[nH]n3)c2n1 [Compound 25]	≤ 200 nM	
102.05%	C[C@@H]1COCCN1c1cc(N=S(C)(C)=O)c2cnn(-c3ccn[nH]3)c2n1 [Compound 1]	≤ 200 nM	
	C[C@@H]1COCCN1c1cc(N=S(C)(C)=O)c2c(C(F)(F)F)nn(-c3ccn[nH]3)c2n1 [Compound 23]	≤ 200 nM	
	C[C@@H]1COCCN1c1cc(N=[S@@](C)(=O)c2ccc(F)cc2)c2cnn(-c3ccn[nH]3)c2n1 (single isomer, unassigned) [Compound 14-A]		IC50 (ATR kinase): < 50 nM
96.49%	C[C@@H]1COCCN1c1cc(N=S2(=O)CCCC2)c2cnn(-c3ccn[nH]3)c2n1 [Compound 4]	≤ 200 nM	
	C[C@@H]1COCCN1c1cc(N=[S@@](C)(=O)C2CCCC2)c2cnn(-c3ccn[nH]3)c2n1 [Compound 15-B]	≤ 200 nM	
	C[C@@H]1COCCN1c1cc(N=S2(=O)CCCCC2)c2cnn(-c3ccn[nH]3)c2n1 [Compound 5]	≤ 200 nM	
	C[C@@H]1COCCN1c1cc(N=[S@@](C)(=O)C2CCCC2)c2cnn(-c3ccn[nH]3)c2n1 (single isomer, unassigned) [Compound 15-A]	≤ 200 nM	IC50 (ATR kinase): < 50 nM
106.47%	C[C@@H]1COCCN1c1cc(N=S2(=O)CCC2)c2cnn(-c3ccn[nH]3)c2n1 [Compound 3]	≤ 200 nM	
	Cc1nn(-c2ccn[nH]2)c2nc(N3CCOC[C@H]3C)cc(N=S(C)(C)=O)c12 [Compound 20]	≤ 200 nM	bioavailability ([1]; mouse, plasma, oral, IG 10 mg/kg vs IV 1 mg/kg, read-out: Absolute bioavailability F): 74%; half-life ([1]; mouse, plasma, po, intragastric 10 mg/kg, read-out: IG half-life t1/2 (converted)): 1.93 h; Vd ([1]; mouse, plasma, IG 10 mg/kg / IV 1 mg/kg study, read-out: Tissue distribution Vd): 1.04 L/kg; AUC(0-t) ([1]; mouse, plasma, IG 10 mg/kg / IV 1 mg/kg study, read-out: Area under plasma concentration-time curve AUC0-last): 14600 ng·h/mL; Cmax ([1]; mouse, plasma, IG 10 mg/kg / IV 1 mg/kg study, read-out: Peak concentration Cmax): 6520 ng/mL
	C[C@@H]1COCCN1c1cc(N=S(C)(=O)C(C)(C)C)c2cnn(-c3ccn[nH]3)c2n1 (some centres unmarked) [Compound 17]	≤ 200 nM	

SMILES	Human liver microsome (Residual % at 60 min) [2]	IC50 (TMD-8 cells; [4])	further results
C[C@@H]1COCCN1c1cc(N=[S@](C)(=O)C2CC2)c2cnn(-c3ccn[nH]3)c2n1 [Compound 10-A]	95.39%		IG half-life t1/2 ([1]; intragastric 10 mg/kg): 1.3 h; Area under plasma concentration-time curve AUC0-last [1, 3]: 13943 ng·h/mL; Peak concentration Cmax [1, 3]: 4888 ng/mL; Tissue distribution Vd ([1]; IG 10 mg/kg / IV 1 mg/kg study): 0.68 L/kg; Absolute bioavailability F ([1]; IG 10 mg/kg vs IV 1 mg/kg): 66%; IC50 (ATR kinase): < 50 nM
